Data: patent publication US6379670B1, “Methods for treatment of multiple sclerosis using peptide analogs of human myelin basic protein” (Neurocrine Biosciences, Inc., priority 1994, dated 2002)
Non-standard residues stand in square brackets, D forms with d. No end group written: not given here.

Key:
EAE in Lewis rats = test: Treatment of MBP(83-99)-induced EAE in Lewis rats with peptide analogs (subcutaneous); format: in vivo, Lewis rat
Description: In this system, experimental allergic encephalomyelitis (EAE) was induced in twelve female Lewis rats by injection of MBP(83-99) peptide in complete Freund's adjuvant (CFA) at the base of the tail. Nine days later, rats were divided into two groups of six animals and subcutaneously injected with 13.2 mg/kg of either peptide analog or a control peptide, sperm whale myoglobin (SWM) (110-121). Animals were monitored daily for disease symptoms and scored in a blinded fashion on a nonlinear ascending scale of 0-4 with increments denoting increasing paralysis. Each individual score was averaged with group cohorts to obtain the mean clinical score.

[1] = test system: NBI-5788- or MBP-reactive TCL from MS patients; test: Cytokine secretion (IFN-γ, IL-5) by TCL from MS patients, ELISA; format: in vivo, human
Description: To more fully characterize the nature of the immune response generated following APL administration, proliferating NBI-5788- or MBP-reactive TCL were established from untreated or NBI-5788-treated MS patients. […] Levels of Th2 cytokine IL-5 and Th1 cytokine IFN-γ were measured in culture supernatants collected 48 hours after stimulation with the selecting antigen, either NBI-5788 or whole MBP. Cytokines produced by T cell lines were assayed by ELISA. To measure cytokine levels, a sandwich ELISA method was used as follows: Nunc Maxisorp microtiter plates (Nalge Nunc, Denmark) were coated with capture mAb (Pharmingen, San Diego, Calif.) at 2 μg/ml for IL-4, IL-10, IL-13 and IFN-γ or at 1 μg/ml for IL-5. The capture mAb was diluted with 0.1 M NaHCO3 dispensed on the plate and incubated at 4° C. overnight. Plates were then blocked for at least 30 minutes at RT with 1% BSA (Sigma, St. Louis, Mo.) for IL-4, IL-5, IL-10 and IL-13 or 1% casein (Sigma) for IFN-γ. Standards were serially diluted (1000-1 pg/ml for IL-4 and 4000-5.5 pg/ml for IL-5, IL-10, IL-13 and IFN-γ) in blocking buffer and added to the plate. Samples were diluted at least 1:2 in blocking buffer and added to the plate. The plates were incubated at room temperature for one hour. The plates were washed and the biotinylated detection mAb (Pharmingen) was added to the plates at 1 μg/ml for IL-5 and IFN-γ or 2 μg/ml for IL-4, L-10, and IL-13. The plates were incubated for 1.5 hours at RT. After washing the plates streptavidin-peroxidase (Pierce, Rockford, Ill.) was added at 1 μg/ml for IL-5, IL-10, and IL-13 or 2 μg/ml for IL-4 and IFN-γ. The plates were incubated for 20-30 minutes. After washing thoroughly, TMB (Calbiochem, San Diego, Calif.) was added and the color was allowed to develop. The reaction was stopped by 0.2N H2SO4 and absorbance at 450 nm was determined. The association between cytokine phenotype and NBI-5788 treatment was evaluated by χ^2 contingency analysis. Mean cytokine secretion levels were compared using MannWhitney U test for non-parametric data. Probability values≦0.05 were considered significant.

[2] = test system: NBI-5788-reactive or MBP-reactive T cell lines from MS patients; test: Cross-reactivity of T cell lines (TCL) from MS patients, 3H-thymidine proliferation; format: cell-based, human
Description: To evaluate the degree of NBI-5788-specific reactivity induced by NBI-5788 treatment, we determined whether NBI-5788-reactive T cell lines generated from untreated or NBI-5788-treated patients cross-reacted with whole MBP or MBP peptide 83-99. T cell lines were generated from positive cultures in the frequency analysis by an additional cycle of co-culture with antigen. Specificity of positive lines was tested by culturing 2×10^4 T cells/well in triplicate with whole MBP, MBP83-99, NBI-5788 or medium alone in the presence of 10^5 APCs in a final volume of 200 μl/well. Two days later supernatants were pooled from replicate wells and frozen at −80° C. Wells were then pulsed with [^3H]-thymidine (1 μCi/well) for the final 18 hours of culture.

[3] = patient MS-1, dose 20 mg, TCL 4

## MBP(83-99) (83E>a, 84N>K, 89F>L, and 91K>A) ([dA]KPVVHLFANIVTPRTP) [NBI-5788]
EAE in Lewis rats; 13.2 mg/kg subcutaneously on day 9, FIG. 9
  reduction of disease severity compared to the control group: about 50%
EAE in Lewis rats; 13.2 mg/kg subcutaneously on day 9, FIGS. 10 and 11
  effect on EAE disease severity versus control peptide: significantly reduced the severity and duration of the disease
[1]; 13 of 23 TCL
  MBP-reactive TCL from APL-treated MS patients that secreted more IL-5 than IFN-γ: 56%
[1]; 19 of 32 TCL
  APL-reactive TCL from APL-treated MS patients that secreted more IL-5 than IFN-γ: 59%
[1]; FIGS. 31A and 31B
  change of mean IFN-γ secretion of MBP-reactive and APL-reactive T cell lines, APL-treated compared to non-treated MS patients: significant (p<0.05) decrease
[1]; secreting more IL-5 than IFN-γ
  cytokine phenotype of NBI-5788-reactive TCL from APL-treated versus untreated MS patients: more Th2-like
[1]; significant (p<0.05) for APL-reactive TCL, but not for MBP-reactive TCL
  change of mean IL-5 secretion of TCL, APL-treated compared to non-treated MS patients: concomitant increase
[2]; 1 of 35 TCL
  whole MBP-reactive TCL from treated patients cross-reacting with NBI-5788: 2.9%
[2]; 1 of 43 TCL
  NBI-5788-reactive TCL from treated patients cross-reacting with whole MBP: 2.3%
[2]; 2 of 43 TCL
  NBI-5788-reactive TCL from treated patients cross-reacting with both MBP83-99 and whole MBP: 4.7%
[2]; 3 of 35 TCL
  whole MBP-reactive TCL from treated patients cross-reacting with MBP83-99 and NBI-5788: 8.6%
[2]; 6 of 35 TCL
  whole MBP-reactive TCL from treated patients cross-reacting with MBP-83-99: 17.1%
[2]; 12 of 43 TCL
  NBI-5788-reactive TCL from treated patients cross-reacting with MBP83-99: 27.9%
[2]; patient MS-1, dose 20 mg, TCL 2
  proliferative response of MBP-reactive TCL to antigen: 6,090 ± 102
[2]; [3]
  proliferative response of MBP-reactive TCL to antigen: 4,164 ± 123
  proliferative response of NBI-5788-reactive TCL to antigen: 4,112 ± 349
[2]; patient MS-1, dose 20 mg, TCL 5
  proliferative response of MBP-reactive TCL to antigen: 3,115 ± 56
[2]; patient MS-1, dose 20 mg, TCL 10
  proliferative response of MBP-reactive TCL to antigen: 2,794 ± 152
[2]; patient MS-1, dose 20 mg, TCL 14
  proliferative response of MBP-reactive TCL to antigen: 15,780 ± 214
[2]; patient MS-1, dose 20 mg, TCL 26
  proliferative response of MBP-reactive TCL to antigen: 2,559 ± 74
[2]; patient MS-1, dose 20 mg, TCL 36
  proliferative response of NBI-5788-reactive TCL to antigen: 18,259 ± 2011
[2]; patient MS-1, dose 20 mg, TCL 45
  proliferative response of MBP-reactive TCL to antigen: 2,559 ± 637
[2]; patient MS-2, dose 20 mg, TCL 14
  proliferative response of MBP-reactive TCL to antigen: 2,566 ± 421
[2]; patient MS-3, Pretreat., TCL 9
  proliferative response of MBP-reactive TCL to antigen: 6,468 ± 586
[2]; patient MS-3, dose 20 mg, TCL 2
  proliferative response of NBI-5788-reactive TCL to antigen: 19,315 ± 1,310
[2]; patient MS-3, dose 20 mg, TCL 4
  proliferative response of NBI-5788-reactive TCL to antigen: 50,630 ± 11,709
[2]; patient MS-3, dose 20 mg, TCL 18
  proliferative response of NBI-5788-reactive TCL to antigen: 10,308 ± 1,283
[2]; patient MS-3, dose 20 mg, TCL 30
  proliferative response of NBI-5788-reactive TCL to antigen: 48,278 ± 1,070
[2]; patient MS-4, dose 20 mg, TCL 7
  proliferative response of MBP-reactive TCL to antigen: 7,492 ± 716
[2]; patient MS-4, dose 20 mg, TCL 18
  proliferative response of NBI-5788-reactive TCL to antigen: 26,017 ± 802
[2]; patient MS-5, dose 20 mg, TCL 15
  proliferative response of NBI-5788-reactive TCL to antigen: 32,597 ± 1,856
[2]; patient MS-5, dose 20 mg, TCL 39
  proliferative response of NBI-5788-reactive TCL to antigen: 24,326 ± 3,724
[2]; patient MS-5, dose 20 mg, TCL 43
  proliferative response of NBI-5788-reactive TCL to antigen: 16,726 ± 1,121
[2]; patient MS-6, dose 10 mg, TCL 22
  proliferative response of NBI-5788-reactive TCL to antigen: 43,085 ± 1,376
[2]; patient MS-6, dose 10 mg, TCL 38
  proliferative response of NBI-5788-reactive TCL to antigen: 24,195 ± 613
[2]; patient MS-7, dose 5 mg, TCL 12
  proliferative response of NBI-5788-reactive TCL to antigen: 17,749 ± 1,784
[2]; patient MS-7, dose 5 mg, TCL 28
  proliferative response of NBI-5788-reactive TCL to antigen: 3,505 ± 1,446
[2]; patient MS-7, dose 5 mg, TCL 46
  proliferative response of MBP-reactive TCL to antigen: 1,298 ± 113
[2]; patient MS-8, Placebo, TCL 26
  proliferative response of MBP-reactive TCL to antigen: 944 ± 259
[2]; patient MS-8, Placebo, TCL 28
  proliferative response of MBP-reactive TCL to antigen: 1,437 ± 97
[2]; patient MS-8, Placebo, TCL 38
  proliferative response of MBP-reactive TCL to antigen: 16,931 ± 1938
[2]; patient MS-8, Pretreat., TCL 22
  proliferative response of MBP-reactive TCL to antigen: 2,636 ± 270
[2]; patient MS-8, Pretreat., TCL 31
  proliferative response of MBP-reactive TCL to antigen: 936 ± 123
[2]; patient MS-8, Pretreat., TCL 47
  proliferative response of MBP-reactive TCL to antigen: 3,448 ± 1,980
